Measurements published in PubChem BioAssay AID2060358 (Molecular Pharmacology Branch, DTP, NCI, 2025).
Activity calls are given as the source filed them. How the source made its calls: active means viability on the fitted dose curve at most 10% of control; inactive means the rest.

System: 254851-301-R-J1-PDC spheroids, viability % test/control
Experiment: Anticancer human tumor 254851-301-R-J1-PDC patient-derived colon carcinoma cell line growth inhibition [TAK]
Settings: spheroids with HUVEC and MSC; for IC50: curve of first compound; for viability, T/C: stronger effect = lower value
In short: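 Spheroids of 60% malignant cells, 25% HUVEC and 15% hMSC were exposed to targeted agents combined with TAK-243 or ipatasertib. Concentrations started at or near clinical Cmax (10 microM if unknown) and descended in half-log steps.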
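Wherever IC50 is given: spheroids exposed to drugs for seven days before viability readout.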
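Wherever viability, T/C is given: spheroids exposed to drugs for seven days before viability readout; 100% = DMSO vehicle control viability.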

## CC(=O)Nc1cccc(-n2c(=O)n(C3CC3)c(=O)c3c(Nc4ccc(I)cc4F)n(C)c(=O)c(C)c32)c1 + CC(C)NCC(C(=O)N1CCN(c2ncnc3c2C(C)CC3O)CC1)c1ccc(Cl)cc1
Second compound 0.3 µM
  IC50: 17.6 nM
Second compound 0.949 µM
  IC50: 17.6 nM
Second compound 3 µM
  IC50: 18.6 nM
Second compound 9.49 µM
  IC50: 17.3 nM
Second compound 30 µM
  IC50: 12.5 nM
Second compound 0.3 µM, first compound 94.9 pM
  viability, T/C: 115%
Second compound 0.3 µM, first compound 0.0003 µM
  viability, T/C: 109%
Second compound 0.3 µM, first compound 0.000949 µM
  viability, T/C: 108%
Second compound 0.3 µM, first compound 0.003 µM
  viability, T/C: 116%
Second compound 0.3 µM, first compound 0.00949 µM
  viability, T/C: 95.7%
Second compound 0.3 µM, first compound 0.03 µM
  viability, T/C: 11%
Second compound 0.949 µM, first compound 94.9 pM
  viability, T/C: 111%
Second compound 0.949 µM, first compound 0.0003 µM
  viability, T/C: 110%
Second compound 0.949 µM, first compound 0.000949 µM
  viability, T/C: 111%
Second compound 0.949 µM, first compound 0.003 µM
  viability, T/C: 102%
Second compound 0.949 µM, first compound 0.00949 µM
  viability, T/C: 88.5%
Second compound 0.949 µM, first compound 0.03 µM
  viability, T/C: 17.4%
Second compound 3 µM, first compound 94.9 pM
  viability, T/C: 106%
Second compound 3 µM, first compound 0.0003 µM
  viability, T/C: 107%
Second compound 3 µM, first compound 0.000949 µM
  viability, T/C: 110%
Second compound 3 µM, first compound 0.003 µM
  viability, T/C: 116%
Second compound 3 µM, first compound 0.00949 µM
  outcome: inactive
Second compound 3 µM, first compound 0.03 µM
  viability, T/C: 9.28%
Second compound 9.49 µM, first compound 94.9 pM
  viability, T/C: 94.7%
Second compound 9.49 µM, first compound 0.0003 µM
  viability, T/C: 114%
Second compound 9.49 µM, first compound 0.000949 µM
  viability, T/C: 106%
Second compound 9.49 µM, first compound 0.003 µM
  viability, T/C: 108%
Second compound 9.49 µM, first compound 0.00949 µM
  viability, T/C: 97.7%
Second compound 9.49 µM, first compound 0.03 µM
  viability, T/C: 6.45%
Second compound 30 µM, first compound 94.9 pM
  viability, T/C: 81.1%
Second compound 30 µM, first compound 0.0003 µM
  viability, T/C: 96.6%
Second compound 30 µM, first compound 0.000949 µM
  viability, T/C: 97.3%
Second compound 30 µM, first compound 0.003 µM
  viability, T/C: 81.4%
Second compound 30 µM, first compound 0.00949 µM
  viability, T/C: 65.3%
Second compound 30 µM, first compound 0.03 µM
  viability, T/C: 2.95%

## CC(C)CC(NC(=O)CNC(=O)c1cc(Cl)ccc1Cl)B1OC(=O)CC(CC(=O)O)(C(=O)O)O1 (stereo not given) + CC(C)NCC(C(=O)N1CCN(c2ncnc3c2C(C)CC3O)CC1)c1ccc(Cl)cc1
Second compound 0.3 µM
  IC50: 53.7 nM
Second compound 0.949 µM
  IC50: 49.7 nM
Second compound 3 µM
  IC50: 49.2 nM
Second compound 9.49 µM
  IC50: 56.9 nM
Second compound 30 µM
  IC50: 57.6 nM
Second compound 0.3 µM, first compound 0.000316 µM
  viability, T/C: 103%
Second compound 0.3 µM, first compound 0.001 µM
  viability, T/C: 100%
Second compound 0.3 µM, first compound 0.00316 µM
  viability, T/C: 95.8%
Second compound 0.3 µM, first compound 0.01 µM
  viability, T/C: 101%
Second compound 0.3 µM, first compound 0.0316 µM
  viability, T/C: 73.7%
Second compound 0.3 µM, first compound 0.1 µM
  viability, T/C: 22.2%
Second compound 0.949 µM, first compound 0.000316 µM
  viability, T/C: 98.6%
Second compound 0.949 µM, first compound 0.001 µM
  viability, T/C: 102%
Second compound 0.949 µM, first compound 0.00316 µM
  viability, T/C: 95.3%
Second compound 0.949 µM, first compound 0.01 µM
  viability, T/C: 95%
Second compound 0.949 µM, first compound 0.0316 µM
  viability, T/C: 67.3%
Second compound 0.949 µM, first compound 0.1 µM
  viability, T/C: 23.2%
Second compound 3 µM, first compound 0.000316 µM
  viability, T/C: 95.8%
Second compound 3 µM, first compound 0.001 µM
  viability, T/C: 107%
Second compound 3 µM, first compound 0.00316 µM
  viability, T/C: 98.9%
Second compound 3 µM, first compound 0.01 µM
  viability, T/C: 102%
Second compound 3 µM, first compound 0.0316 µM
  viability, T/C: 70.2%
Second compound 3 µM, first compound 0.1 µM
  viability, T/C: 17.9%
Second compound 9.49 µM, first compound 0.000316 µM
  viability, T/C: 96.8%
Second compound 9.49 µM, first compound 0.001 µM
  viability, T/C: 101%
Second compound 9.49 µM, first compound 0.00316 µM
  viability, T/C: 97.7%
Second compound 9.49 µM, first compound 0.01 µM
  viability, T/C: 95.1%
Second compound 9.49 µM, first compound 0.0316 µM
  viability, T/C: 76.6%
Second compound 9.49 µM, first compound 0.1 µM
  viability, T/C: 24.5%
Second compound 30 µM, first compound 0.000316 µM
  viability, T/C: 78.2%
Second compound 30 µM, first compound 0.001 µM
  viability, T/C: 63%
Second compound 30 µM, first compound 0.00316 µM
  viability, T/C: 81.4%
Second compound 30 µM, first compound 0.01 µM
  viability, T/C: 86%
Second compound 30 µM, first compound 0.0316 µM
  viability, T/C: 80%
Second compound 30 µM, first compound 0.1 µM
  viability, T/C: 24.4%
